Source: patent US6548533B2, “Ureido substituted pyrrolidines” (Aventis Pharma Limited, priority 1999, dated 2003)

| Structure (SMILES) | melting point |
| --- | --- |
| COc1cc(CC(=O)Nc2ccc(C3CN(C(C)=O)CC3C(=O)O)cc2)ccc1NC(=O)Nc1ccccc1C (centres unmarked) [Example 1, 1-Acetyl-4-(4-{2-[3-methoxy-4-(3-o-tolyl-ureido)-phenyl]-acetylamino}-phenyl)-pyrrolidine-3-carboxylic Acid] | 242 °C |
| COc1cc(CC(=O)Nc2ccc(C3CN(C(=O)c4ccccc4)CC3C(=O)O)cc2)ccc1NC(=O)Nc1ccccc1C (centres unmarked) [Example 2, 1-Benzoyl-4-(4-{2-[3-methoxy-4-(3-o-tolyl-ureido)-phenyl]-acetylamino}-phenyl)-pyrrolidine-3-carboxylic Acid] | 248 °C |
| COc1cc(CC(=O)Nc2ccc(C3CN(C(=O)CCC(=O)O)CC3C(=O)O)cc2)ccc1NC(=O)Nc1ccccc1C (centres unmarked) [Example 3, 1-(3-Carboxy-propionyl)-4-(4-{2-[3-methoxy-4-(3-o-tolyl-ureido)-phenyl]-acetylamino}-phenyl)-pyrrolidine-3-carboxylic Acid] | 184 °C |
| COc1cc(CC(=O)Nc2ccc(C3C(C(=O)O)CCN3C(=O)c3ccccc3)cc2)ccc1NC(=O)Nc1ccccc1C (centres unmarked) [Example 4, 1-Benzoyl-2-(4-{2-[3-methoxy-4-(3-o-tolyl-ureido)-phenyl]-acetylamino}-phenyl)-pyrrolidine-3-carboxylic Acid] | 155 °C (dec.) |
| COc1cc(CC(=O)Nc2ccc(C3CN(Cc4ccccc4)CC3C(=O)O)cc2)ccc1NC(=O)Nc1ccccc1C (centres unmarked) [Example 5, 1-Benzyl-4-(4-{2-[3-methoxy-4-(3-o-tolyl-ureido)-phenyl]-acetylamino}-phenyl)-pyrrolidine-3-carboxylic Acid] | 255 °C |
